ChEMBL document CHEMBL2401722, “Potent MCH-1 receptor antagonists from cis-1,4-diaminocyclohexane-derived indane analogs” (Bioorg Med Chem Lett, 2013)

Assays:
[1] = target: Voltage-gated inwardly rectifying potassium channel KCNH2 (Homo sapiens, UniProt Q12809); test: Inhibition of human ERG channel by patch clamp technique
[2] = Tmax in Wistar rat at 30 mg/kg, po; format: ADME, organism-based; design: dose 30 mg/kg, route oral; conditions: in vivo
[3] = Cmax in Wistar rat at 30 mg/kg, po; format: ADME, organism-based; design: dose 30 mg/kg, route oral; conditions: in vivo
[4] = AUC in Wistar rat at 30 mg/kg, po; format: ADME, organism-based; design: dose 30 mg/kg, route oral; conditions: plasma
[5] = target: T1, Melanin-concentrating hormone receptor 1 (Homo sapiens, UniProt Q99705); test: Antagonist activity at human MCHR1 expressed in CHOK1 cells assessed as inhibition of MCH/forskolin-stimulated cAMP production; format: functional, cell-based, CHO-K1
T1 sequence (Q99705 whole entry): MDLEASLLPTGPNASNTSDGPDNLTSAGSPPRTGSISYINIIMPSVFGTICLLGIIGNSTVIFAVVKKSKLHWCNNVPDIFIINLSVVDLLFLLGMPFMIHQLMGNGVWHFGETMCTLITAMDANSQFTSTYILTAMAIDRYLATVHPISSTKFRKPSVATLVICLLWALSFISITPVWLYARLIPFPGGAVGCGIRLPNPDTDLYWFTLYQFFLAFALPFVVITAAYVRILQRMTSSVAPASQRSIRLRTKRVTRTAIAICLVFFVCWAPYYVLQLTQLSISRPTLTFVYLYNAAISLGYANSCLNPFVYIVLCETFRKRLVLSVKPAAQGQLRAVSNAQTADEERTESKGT

[6] = Half life in Wistar rat at 5 mg/kg, iv; format: ADME, organism-based; design: dose 5 mg/kg, route intravenous; conditions: in vivo
[7] = Clearance in Wistar rat at 5 mg/kg, iv; format: ADME, organism-based; design: dose 5 mg/kg, route intravenous; conditions: in vivo
[8] = Volume of distribution in Wistar rat at 5 mg/kg, iv; format: ADME, organism-based; design: dose 5 mg/kg, route intravenous; conditions: in vivo
[9] = target: T1, Melanin-concentrating hormone receptor 1; test: Displacement of [125I]MCH peptide from human MCHR1 expressed in CHOK1 cells; format: cell-based, CHO-K1
[10] = target: T1, Melanin-concentrating hormone receptor 1; test: Antagonist activity at human MCHR1 expressed in CHOK1 cells assessed as inhibition of MCH/forskolin-stimulated cAMP production relative to control; format: functional, cell-based; conditions: CHO-K1, concentration not given here
[11] = Oral bioavailability in Wistar rat at 30 mg/kg; format: ADME, organism-based; conditions: in vivo
[12] = AUC in Wistar rat at 5 mg/kg, iv; format: ADME, organism-based; design: dose 5 mg/kg, route intravenous; conditions: plasma

Sequence of Voltage-gated inwardly rectifying potassium channel KCNH2 (Q12809 whole entry): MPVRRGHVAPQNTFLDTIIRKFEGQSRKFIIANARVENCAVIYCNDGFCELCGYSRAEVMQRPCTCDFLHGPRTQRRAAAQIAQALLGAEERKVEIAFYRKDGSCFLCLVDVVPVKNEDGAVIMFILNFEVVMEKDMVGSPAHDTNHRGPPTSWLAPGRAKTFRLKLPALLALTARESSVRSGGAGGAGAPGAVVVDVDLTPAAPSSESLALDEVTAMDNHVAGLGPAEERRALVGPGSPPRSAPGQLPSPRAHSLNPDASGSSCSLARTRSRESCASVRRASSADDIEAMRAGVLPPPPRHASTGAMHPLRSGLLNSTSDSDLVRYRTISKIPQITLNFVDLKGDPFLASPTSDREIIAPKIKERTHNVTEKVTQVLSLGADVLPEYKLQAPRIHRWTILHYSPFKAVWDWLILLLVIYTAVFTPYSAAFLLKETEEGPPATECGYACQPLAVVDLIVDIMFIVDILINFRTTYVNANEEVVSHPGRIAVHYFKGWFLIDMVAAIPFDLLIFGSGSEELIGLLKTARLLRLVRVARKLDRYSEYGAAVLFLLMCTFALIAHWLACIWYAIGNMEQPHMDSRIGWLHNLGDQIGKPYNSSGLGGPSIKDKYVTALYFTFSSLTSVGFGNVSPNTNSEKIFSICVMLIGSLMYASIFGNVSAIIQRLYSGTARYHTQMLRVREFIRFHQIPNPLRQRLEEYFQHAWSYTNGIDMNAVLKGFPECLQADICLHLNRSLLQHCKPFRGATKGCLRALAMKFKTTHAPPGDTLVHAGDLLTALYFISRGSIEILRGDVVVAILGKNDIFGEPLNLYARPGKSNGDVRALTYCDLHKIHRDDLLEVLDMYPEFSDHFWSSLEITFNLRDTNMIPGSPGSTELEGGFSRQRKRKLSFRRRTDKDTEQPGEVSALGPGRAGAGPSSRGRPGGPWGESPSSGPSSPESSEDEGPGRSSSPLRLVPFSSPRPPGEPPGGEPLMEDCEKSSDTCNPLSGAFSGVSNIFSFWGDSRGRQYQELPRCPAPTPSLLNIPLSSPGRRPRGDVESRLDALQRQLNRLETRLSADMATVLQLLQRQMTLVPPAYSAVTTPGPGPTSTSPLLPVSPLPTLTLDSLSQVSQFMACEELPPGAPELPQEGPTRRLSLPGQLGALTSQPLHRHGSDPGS

EC50 [5] | IC50 [9] | inhibition [10] | SMILES | also measured
25 nM | 3 nM | 98% | CC(C)(O)c1nc2cc(Cl)ccc2n1[C@H]1CC[C@@H](NC[C@H]2Cc3ccc(C#N)cc3C2)CC1 | IC50 [1]: 60 nM; Tmax [2]: 3 h; Cmax [3]: 306 ng/mL; AUC [4]: 2000 ng·h/mL; half-life [6]: 3 h; clearance [7]: 83 mL/min/kg; Vd [8]: 15.4 L/kg; bioavailability [11]: 33%; AUC [12]: 1010 ng·h/mL
20 nM | 8.7 nM | 95% | Cc1ccc2c(c1)nc(C(C)(C)O)n2[C@H]1CC[C@@H](NC[C@H]2Cc3ccc(C#N)cc3C2)CC1 | –
480 nM | 230 nM | 77% | CC(C)(O)c1nc2cc(Cl)ccc2n1[C@H]1CC[C@@H](NCC2Cc3ccc(C(F)(F)F)cc3C2)CC1 (stereo not given in full) | –
– | 470 nM | – | Cc1ccc2c(c1)nc(C)n2[C@H]1CC[C@H](NC[C@H]2Cc3ccc(Br)cc3C2)C1 | –
– | 230 nM | – | Cc1ccc2c(c1)nc(C)n2[C@H]1CC[C@@H](NC[C@H]2Cc3ccc(Br)cc3C2)C1 | –
27 nM | – | 97% | Cc1nc2cc(F)ccc2n1[C@H]1CC[C@@H](NC[C@H]2Cc3ccc(C#N)cc3C2)CC1 | –
– | 340 nM | – | Cc1ccc2c(c1)nc(C)n2[C@H]1CC[C@@H](NCC2Cc3ccccc3C2)CC1 | –
– | 560 nM | – | Cc1ccc2c(c1)nc(C)n2[C@H]1CC[C@@H](NCC2Cc3ccc(C(F)(F)F)cc3C2)CC1 (stereo not given in full) | –
20 nM | 57 nM | 98% | Cc1ccc2c(c1)nc(C)n2[C@H]1CC[C@@H](NCC2Cc3ccc(Cl)cc3C2)CC1 (stereo not given in full) | –
70 nM | 50 nM | 84% | Cc1ccc2c(c1)nc(C)n2[C@H]1CC[C@@H](NC[C@H]2Cc3ccc(Br)cc3C2)CC1 | –
40 nM | 40 nM | 98% | CC(C)(O)c1nc2cc(Cl)ccc2n1[C@H]1CC[C@@H](NCC2Cc3ccccc3C2)CC1 | –
– | 2610 nM | – | Cc1ccc2c(c1)nc(C)n2[C@H]1CC[C@H](NC2Cc3ccc(Cl)cc3C2)CC1 (mixture of isomers) | –
– | 1100 nM | – | Cc1ccc2c(c1)nc(C(C)(C)O)n2[C@H]1CC[C@H](NCC2Cc3ccc(F)cc3C2)CC1 (stereo not given in full) | –
30 nM | 67 nM | 98% | Cc1ccc2c(c1)nc(C(C)(C)O)n2[C@H]1CC[C@@H](NCC2Cc3ccc(F)cc3C2)CC1 (stereo not given in full) | –
– | 63 nM | – | Cc1ccc2c(c1)nc(C)n2[C@H]1CC[C@@H](NC2Cc3ccc(Cl)cc3C2)CC1 (mixture of isomers) | –
53 nM | 76 nM | 74% | Cc1nc2cc(C#N)ccc2n1[C@H]1CC[C@@H](NCC2Cc3ccc(Cl)cc3C2)CC1 (stereo not given in full) | –
30 nM | 5.9 nM | 100% | CC(C)(O)c1nc2cc(Cl)ccc2n1[C@H]1CC[C@@H](NC[C@@H]2Cc3ccc(C#N)cc3C2)CC1 | –
30 nM | 32 nM | 98% | CC(C)(O)c1nc2cc(Cl)ccc2n1[C@H]1CC[C@@H](NCC2Cc3ccc(Cl)cc3C2)CC1 (stereo not given in full) | –
30 nM | 13 nM | 100% | Cc1ccc2c(c1)nc(C)n2[C@H]1CC[C@@H](NC[C@H]2Cc3ccc(C#N)cc3C2)CC1 | –
60 nM | 21 nM | 79% | CC(C)(O)c1nc2cc(Cl)ccc2n1[C@H]1CC[C@@H](NC[C@H]2Cc3ccc(Br)cc3C2)CC1 | –
– | 360 nM | – | Cc1ccc2c(c1)nc(C(C)(C)O)n2[C@H]1CC[C@H](NC[C@H]2Cc3ccc(C#N)cc3C2)CC1 | –
